Reference: patent US20120157471A1, “BENZIMIDAZOLE DERIVATIVES” (PFIZER INC., priority 2009, published 2012)
pIC50: −log10 of the molar value.

How the values were obtained:
[1] = target: T1, human Smo (amino acids 181-787) (Homo sapiens, UniProt Q99835); assay: Smo radioligand competition binding assay (displacement of 3H-PF-03451358 from HEK293 membranes); conditions: for inhibition at 0.05 µM: 0.05 μM test compound, displacement of 3H-PF-03451358, read-out: SMO % inh. @ 0.05 μM; for pIC50: radioligand competition binding
T1 construct: expressed in transfected cells; membrane preparation
Outline: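 Displacement of 3 nM tritiated PF-03451358 measured by filtration and scintillation counting after 2 h at room temperature, using 40 μg/well HEK293 membranes bearing cell-surface Smo 181-787, pH 7.5 buffer. Specific binding defined against 30 μM unlabelled ligand; IC50 via variable-slope sigmoidal fit.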

[2] = system: Gli-Luc/MEF cells (Smo); assay: Gli-Luc/MEF assay (Shh-stimulated luciferase reporter under the Gli response element); format: cell-based, mouse; conditions: Mus musculus, MEF, 48 h
Outline: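 IC50 derived from luminescence (Bright-Glo) after 48 h at 37° C, 5% CO2, with compound at […] (3-fold dilutions) added together with mouse Shh at 2 μg/mL final. Cells: MEFs from Gli-Luc transgenic mice.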

T1 sequence (Q99835 181-787): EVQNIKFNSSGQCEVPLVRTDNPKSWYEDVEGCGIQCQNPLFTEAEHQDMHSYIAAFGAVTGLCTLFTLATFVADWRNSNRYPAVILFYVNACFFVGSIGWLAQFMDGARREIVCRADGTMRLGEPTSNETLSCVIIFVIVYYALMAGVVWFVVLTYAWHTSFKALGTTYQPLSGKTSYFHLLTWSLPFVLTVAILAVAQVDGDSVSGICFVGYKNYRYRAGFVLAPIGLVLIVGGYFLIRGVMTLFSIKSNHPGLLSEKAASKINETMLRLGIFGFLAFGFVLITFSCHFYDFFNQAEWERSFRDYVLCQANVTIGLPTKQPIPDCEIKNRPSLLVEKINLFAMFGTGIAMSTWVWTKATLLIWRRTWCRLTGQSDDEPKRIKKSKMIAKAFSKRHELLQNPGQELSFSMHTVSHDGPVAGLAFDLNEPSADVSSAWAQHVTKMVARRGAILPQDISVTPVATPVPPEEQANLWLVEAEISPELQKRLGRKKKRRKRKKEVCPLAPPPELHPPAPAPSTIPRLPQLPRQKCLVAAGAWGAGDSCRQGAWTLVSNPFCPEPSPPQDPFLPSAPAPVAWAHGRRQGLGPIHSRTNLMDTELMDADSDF

Compound	inhibition at 0.05 µM [1]	pIC50 [1]	pIC50 [2]
Cn1c(-c2cc(N3CC(CS(C)(=O)=O)C3)ncc2Cl)nc2ccccc21 [Example A-211, 2-(5-chloro-2-{3-[(methylsulfonyl)methyl]azetidin-1-yl}pyridin-4-yl)-1-methyl-1H-benzimidazole]	104%	7.44	7.55
Cn1c(-c2cc(N3CCS(=O)(=O)CC3)ncc2Cl)nc2ccccc21 [Example A-89, 2-[5-chloro-2-(1,1-dioxidothiomorpholin-4-yl)pyridin-4-yl]-1-methyl-1H-benzimidazole]	88%	7.40	7.36
Cn1c(-c2cc(N3CCC(OCC(=O)NC4CC4)CC3)ncc2Cl)nc2ccccc21 [Example A-59, 2-({1-[5-chloro-4-(1-methyl-1H-benzimidazol-2-yl)pyridin-2-yl]piperidin-4-yl}oxy)-N-cyclopropylacetamide]	96%	7.92	8.52
COC(=O)N1CCCN(c2cc(-c3nc4ccccc4n3C)ccn2)CC1 [Example A-156, methyl 4-[4-(1-methyl-1H-benzimidazol-2-yl)pyridin-2-yl]-1,4-diazepane-1-carboxylate]	95%	7.64	7.96
Cn1ccnc1C(O)C1CCN(c2cc(-c3nc4ccccc4n3C)c(Cl)cn2)CC1 (stereo not drawn) [Example A-73, {1-[5-chloro-4-(1-methyl-1H-benzimidazol-2-yl)pyridin-2-yl]piperidin-4-yl}(1-methyl-1H-imidazol-2-yl)methanol]	93%	7.35	7.60
Cn1c(-c2cc(N3CCC(CS(N)(=O)=O)CC3)ncc2Cl)nc2ccccc21 [Example A-65, 1-{1-[5-chloro-4-(1-methyl-1H-benzimidazol-2-yl)pyridin-2-yl]piperidin-4-yl}methanesulfonamide]	95%	8.22	8.70
Cn1c(-c2cc(N3CCC(N4CCNC(=O)CC4)CC3)ncc2Cl)nc2ccccc21 [Example A-91, 1-{1-[5-chloro-4-(1-methyl-1H-benzimidazol-2-yl)pyridin-2-yl]piperidin-4-yl}-1,4-diazepan-5-one]	88%	7.26	7.80
Cn1c(-c2cc(N3CCC4(CC3)CNC(=O)O4)ncc2Cl)nc2ccccc21 [Example A-198, 8-[5-chloro-4-(1-methyl-1H-benzimidazol-2-yl)pyridin-2-yl]-1-oxa-3,8-diazaspiro[4.5]decan-2-one]	87%	8.05	8.15
Cn1c(-c2cc(N3CCn4c(CCCO)nnc4C3)ncc2Cl)nc2ccccc21 [Example A-106, 3-{7-[5-chloro-4-(1-methyl-1H-benzimidazol-2-yl)pyridin-2-yl]-5,6,7,8-tetrahydro[1,2,4]triazolo[4,3-a]pyrazin-3-yl}propan-1-ol]	78%	6.66	6.94
Cn1c(-c2cc(N3CCC4(CC3)CC(O)CCO4)ncc2Cl)nc2ccccc21 (stereo not drawn) [Example A-204, 9-[5-chloro-4-(1-methyl-1H-benzimidazol-2-yl)pyridin-2-yl]-1-oxa-9-azaspiro[5.5]undecan-4-ol]	96%	7.72	7.90
Cn1c(-c2ccnc(N3CCC(NS(C)(=O)=O)CC3)c2)nc2ccccc21 [Example A-17, N-{1-[4-(1-methyl-1H-benzimidazol-2-yl)pyridin-2-yl]piperidin-4-yl}methanesulfonamide]	99%	7.89	8.22
Cn1c(-c2cc(N3CCC(CO)C3)ncc2Cl)nc2ccccc21 (stereo not drawn) [Example A-102, {1-[5-chloro-4-(1-methyl-1H-benzimidazol-2-yl)pyridin-2-yl]pyrrolidin-3-yl}methanol]	80%	7.04	7.40
